From patent publication US5919799A, “Imidazothiazole compound” (Nikken Chemicals Co., Ltd., priority 1995, dated 1999)
Structures can show the parent of a compound that is named as a salt.

Experiments:
[1] = test system: VJ-300 cells (multidrug resistant clones of KB cells); assay: In vitro suppression of proliferation of VJ-300 cells by co-administration with vincristine; assay type: cell-based, Human
Description: As the incubation solution, an Eagle MEM medium (made by Nissui Seiyakusha) containing 10% fetal calf serum (made by Flow Laboratories Co.) and 0.292 mg/ml L-glutamine (made by Flow Laboratories Co.) was used. The action overcoming resistance to an anti-neoplastic agent and effect in enforcing the effect of an anti-neoplastic agent obtained through co-administration of the anti-neoplastic agent doxorubicin (adriamycin, ADM) and the test compounds were tested as follows:
The test cells were suspended in the incubation medium and adjusted to a cell density of about 200 cells/ml. 2 ml portions of the cell suspension were placed in petri dishes and incubated in a carbon dioxide gas incubator (5% CO2, 95% air) at 37° C. for 24 hours. Next, predetermined concentrations of aqueous ADM solutions and dimethyl sulfoxide (DMSO) solutions of predetermined concentrations of the test compounds were added into 5 to 10 μl portions, then incubation was continued for 7 days. After the end of the incubation, the samples were fixed by methanol, Giemsa staining was performed, the number of colonies in each dish was counted, and a volume reaction curve was prepared. This was used to calculate the ADM concentration at a 50% cell survival rate (LD50) and judge the action overcoming resistance to an anti-neoplastic agent and effect in enhancing the effect of an anti-neoplastic agent.
The LD50 concentration of ADM in the ADM control group for KB cells was shown as the resistance degree "1" and the other LD50 concentrations were indexed against this to calculate the resistance degrees. In Table 2, ADM alone (control) is the group administered ADM alone, ADM+Compound 1 is the group co-administered ADM and Compound 1 (1 μg /ml) and so on down to ADM+Compound 19 which is the group co-administered ADM and Compound 19 (1 μg /ml).
A volume reaction curve was prepared and the resistance calculated. In the Tables, VCR alone (control) is the group administered VCR alone, VCR+Compound 1 is the group co-administered VCR and Compound 1(1 μg /ml) and so on down to VCR+Compound 16 which is the group co-administered VCR and Compound 16 (1 μg/ml).

[2] = test system: VCR resistant murine leukemia (P388/VCR) cells; assay: In vivo effect of overcoming resistance with etoposide (VP-16) in P388/VCR bearing mice (intravenous); parameters: species or system CDF1 male mice; settings: i.v., five days; for Rate of prolongation of life (T/C %): vs non-administered control
Description: (b) Separately, groups of six CDF1 male mice were intravenously given transplants of 1.2×10^5 VCR resistant murine leukemia (P388/VCR) cells. The compound of the present invention (20 or 40 mg/kg) was dissolved in 0.01N hydrochloric acid. Etoposide (VP-16, 3 mg/kg) was dissolved in a physiological saline solution. These were administered intravenously for five days and the days of survival were found. In the same way as (a), the rate of prolongation of life with respect to the control (T/C) and the effect in overcoming the resistance to an anti-neoplastic agent (T/V) were found. In Table 6, the control is the non-administered group, VP-16 alone is the group administered VP-16 (3 mg/kg) and VP-16+Compound 5 is the group co-administered VP-16 (3 mg/kg) and Compound 5 (40 mg/kg) and so on to VP-16+Compound 16 which is the group co-administered VP-16 (3 mg/kg) and Compound 16 (40 mg/kg).

[3] = Acute toxicity test (a), intraperitoneal, three animals per group; settings: mouse, in vivo, ip, ICR male mice, up to 7 days after administration
Description: (a) Animals used: ICR male mice (Charles River Japan), 7 to 8 weeks old, were used three to a group.
Test method: The compound of the present invention was suspended in 0.5% sodium carboxymethyl cellulose(CMC-Na) containing 0.1% Tween 80. […] The survival of the animals was examined up to 7 days after administration, then the Van Der Wearder area method was used to calculate the LD50 value.

[4] = test system: VCR resistant murine leukemic (P388/VCR) cells; assay: In vivo effect of overcoming resistance to vincristine in VCR resistant murine leukemia cell bearing mice (intraperitoneal); parameters: species or system CDF1 male mice; settings: i.p., 5 days; for Rate of prolongation of life (T/C %): vs non-administered control
Description: (a) 10^6 VCR resistant murine leukemic (P388/VCR) cells were transplanted intraperitoneally to groups of six CDF1 male mice. The compound of the present invention (10 or 100 mg/kg) was suspended in 0.5% sodium carboxymethyl cellulose containing 0.1% Tween 80, while the VCR (100 μg/kg) was dissolved in physiological saline. These were each administered intraperitoneally over 5 days and the mice observed to find the days of survival and the rate of prolongation of life with respect to the control (T/C). The effect in overcoming resistance to an anti-neoplastic agent (T/V) was found from the following formula:
Effect in overcoming resistance to anti-neoplastic agent (T/V%)=(Rate of prolongation of life when co-administering VCR and compound of present invention (T/C%))/(Rate of prolongation of life by VCR alone
In Table 5, "Control" is the non-administered group, VCR alone is the group administered just VCR (100 μg /kg), VCR+Compound 1 is the group co-administered VCR (100 μg /kg) and Compound 1 (100 mg/kg) and so on to VCR+Compound 14* which is the group co-administered VCR (100 μg /kg) and Compound 14 (10 mg/kg).

[5] = Table 4, co-administered VCR and test compound (1 μg/ml), relative to VCR alone in KB = 1
[6] = VP-16 (3 mg/kg) + compound (20 mg/kg)
[7] = Table 3, co-administered VCR and test compound (1 μg/ml), relative to VCR alone in KB = 1
[8] = VCR (100 μg/kg) + compound (100 mg/kg)
[9] = VCR (100 μg/kg) + compound (100 mg/kg), vs VCR alone
[10] = VP-16 (3 mg/kg) + compound (40 mg/kg)
[11] = VP-16 (3 mg/kg) + compound (40 mg/kg), vs VP-16 alone
[12] = VCR (100 μg/kg) + compound (10 mg/kg)

| Compound | Resistance with VCR, VJ-300 (resistance degree) [1, 5] | Resistance with VCR, VJ-300 (resistance degree) [1, 7] | Days of survival [4, 8] | Effect overcoming resistance (T/V %) [4, 9] | Rate of prolongation of life (T/C %) [4, 8] | other results |
| --- | --- | --- | --- | --- | --- | --- |
| CN1CCCC(C(=O)NN=Cc2c(-c3ccc([N+](=O)[O-])cc3)nc3sc4c(n23)CCCC4)C1 (stereo not drawn) [Compound 10, 5,6,7,8-tetrahydro-2-(4-nitrophenyl)-3-[N-methyl-3-piperidylcarbonylaminoiminomethyl]imidazo[2,1-b]benzothiazole hydrochloride] | 8.7 | – | – | – | – | Days of survival [2, 6]: 12.0 days; Effect overcoming resistance (T/V %) ([2]; VP-16 (3 mg/kg) + compound (20 mg/kg), vs VP-16 alone): 107%; Rate of prolongation of life (T/C %) [2, 6]: 117% |
| O=C(NN=Cc1c(-c2ccc(-c3ccccc3)cc2)nc2sc3c(n12)CCCC3)c1cccnc1 [Compound 2, 5,6,7,8-tetrahydro-2-biphenyl-3-(3-pyridylcarbonylaminoiminomethyl)imidazo[2,1-b]benzothiazole] | – | 1.6 | 12.67 days | 114% | 121% | LD50 at 168 h [3]: ≥ 2000 mg/kg |
| O=C(NN=Cc1c(-c2cccc([N+](=O)[O-])c2)nc2sc3c(n12)CCCC3)c1cccnc1 [Compound 3, 5,6,7,8-tetrahydro-2-(3-nitrophenyl)-3-(3-pyridylcarbonylaminoiminomethyl)imidazo[2,1-b]benzothiazole] | – | 2.7 | – | – | – | – |
| COc1cc(-c2nc3sc4c(n3c2C=NNC(=O)c2cccnc2)CCCC4)cc(OC)c1OC [Compound 4, 5,6,7,8-tetrahydro-2-(3,4,5-trimethoxyphenyl)-3-(3-pyridylcarbonylaminoiminomethyl)imidazo[2,1-b]benzothiazole] | – | 20.9 | 13.28 days | 120% | 127% | – |
| CC[C@]1(O)C[C@H]2CN(CCc3c([nH]c4ccccc34)[C@@](C(=O)OC)(c3cc4c(cc3OC)N(C=O)[C@H]3[C@@](O)(C(=O)OC)[C@H](OC(C)=O)[C@]5(CC)C=CCN6CC[C@]43[C@@H]65)C2)C1 [VCR, vincristine, reference compound] | – | – | – | – | – | Resistance with VCR, VJ-300 (resistance degree) ([1]; Table 3, VCR alone (Control), relative to KB = 1): 306.6; Resistance with VCR, VJ-300 (resistance degree) ([1]; Table 4, VCR alone (Control), relative to KB = 1): 843.1; Days of survival ([4]; VCR alone (100 μg/kg)): 11.08 days; Effect overcoming resistance (T/V %) ([4]; VCR alone (100 μg/kg), reference = 100): 100%; Rate of prolongation of life (T/C %) ([4]; VCR alone (100 μg/kg)): 106% |
| COc1cc([C@@H]2c3cc4c(cc3[C@@H](O[C@@H]3O[C@@H]5CO[C@@H](C)O[C@H]5[C@H](O)[C@H]3O)[C@H]3COC(=O)[C@H]23)OCO4)cc(OC)c1O [VP-16, Etoposide, reference compound] | – | – | – | – | – | Days of survival ([2]; VP-16 alone (3 mg/kg)): 11.2 days; Effect overcoming resistance (T/V %) ([2]; VP-16 alone (3 mg/kg), reference = 100): 100%; Rate of prolongation of life (T/C %) ([2]; VP-16 alone (3 mg/kg)): 109% |
| CC(C)N1CCCC(C(=O)NN=Cc2c(-c3ccccc3)nc3sc4c(n23)CCCC4)C1 (stereo not drawn) [Compound 13, 5,6,7,8-tetrahydro-2-phenyl-3-[N-isopropyl-3-piperidylcarbonylaminoiminomethyl]imidazo[2,1-b]benzothiazole hydrochloride] | 2.0 | – | – | – | – | – |
| O=C(NN=Cc1c(-c2ccccc2)nc2sc3c(n12)CCCC3)c1ccccc1 [Compound 8, 5,6,7,8-tetrahydro-2-phenyl-3-(benzoylaminoiminomethyl)imidazo[2,1-b]benzothiazole] | – | 3.5 | 12.00 days | 108% | 115% | – |
| O=C(NN=Cc1c(-c2ccccc2)nc2sc3c(n12)CCCC3)c1cccnc1 [Compound 1, 5,6,7,8-tetrahydro-2-phenyl-3-(3-pyridylcarbonylaminoiminomethyl)imidazo[2,1-b]benzothiazole] | – | 3.3 | 12.33 days | 111% | 118% | LD50 at 168 h [3]: ≥ 2000 mg/kg |
| CN1CCCC(C(=O)NN=Cc2c(-c3ccc(-c4ccccc4)cc3)nc3sc4c(n23)CCCC4)C1 (stereo not drawn) [Compound 11, 5,6,7,8-tetrahydro-2-biphenyl-3-[N-methyl-3-piperidylcarbonylaminoiminomethyl]imidazo[2,1-b]benzothiazole hydrochloride] | 1.3 | – | – | – | – | Days of survival [2, 10]: 13.0 days; Effect overcoming resistance (T/V %) [2, 11]: 116%; Rate of prolongation of life (T/C %) [2, 10]: 126% |
| O=C(NN=Cc1c(-c2ccccc2)nc2sc3c(n12)CCCC3)C1CCCN(Cc2ccccc2)C1 (stereo not drawn) [Compound 9, 5,6,7,8-tetrahydro-2-phenyl-3-[N-benzyl-3-piperidylcarbonylaminoiminomethyl]imidazo[2,1-b]benzothiazole] | 2.5 | – | – | – | – | – |
| O=C(NN=Cc1c(-c2ccccc2)nc2sc3ccccc3n12)c1cccnc1 [Compound 14, 2-phenyl-3-[3-pyridylcarbonylaminoiminomethyl]imidazo[2,1-b]benzothiazole] | 4.0 | – | – | – | – | Days of survival [4, 12]: 13.67 days; Effect overcoming resistance (T/V %) ([4]; VCR (100 μg/kg) + compound (10 mg/kg), vs VCR alone): 124%; Rate of prolongation of life (T/C %) [4, 12]: 131% |
| CCCN1CCCC(C(=O)NN=Cc2c(-c3ccccc3)nc3sc4ccccc4n23)C1 (stereo not drawn) [Compound 16, 2-phenyl-3-[N-propyl-3-piperidylcarbonylaminoimino-methyl]imidazo[2,1-b]benzothiazole hydrochloride] | 2.6 | – | – | – | – | Days of survival [2, 10]: 12.7 days; Effect overcoming resistance (T/V %) [2, 11]: 113%; Rate of prolongation of life (T/C %) [2, 10]: 123% |
